Assay results from US20070167452A1, “Therapeutic amide derivatives” (PFIZER, INC., priority 2004, published 2007).
Where two headings read alike, the source gives them in different places.

Legend:
Human HERG [1] = target: T1, Human HERG (Homo sapiens, UniProt Q12809); test: Human Dofetilide Binding Assay
Description: (§1) Human HERG transfected HEK293S cells were prepared and grown in-house. The collected cells were suspended in 50 mM Tris-HCl (pH 7.4 at 4° C.) and homogenized using a hand held Polytron PT 1200 disruptor set at full power for 20 sec on ice. The homogenates were centrifuged at 48,000×g at 4° C. for 20 min. The pellets were then resuspended, homogenized, and centrifuged once more in the same manner. The final pellets were resuspended in an appropriate volume of 50 mM Tris-HCl, 10 mM KCl, 1 mM MgCl2 (pH 7.4 at 4° C.), homogenized, aliquoted and stored at −80° C. until use. An aliquot of membrane fractions was used for protein concentration determination using BCA protein assay kit (PIERCE) and ARVOsx plate reader (Wallac).
(§2) Binding assays were conducted in a total volume of 200 μl in 96-well plates. Twenty μl of test compounds were incubated with 20 μl of [^3H]-dofetilide (Amersham, final 5 nM) and 160 μl of membrane homogenate (25 μg protein) for 60 minutes at room temperature. Nonspecific binding was determined by 10 μM dofetilide at the final concentration. Incubation was terminated by rapid vacuum filtration over 0.5% presoaked GF/B Betaplate filter using Skatron cell harvester with 50 mM Tris-HCl, 10 mM KCl, 1 mM MgCl2, pH 7.4 at 4° C. The filters were dried, put into sample bags and filled with Betaplate Scint. Radioactivity bound to filter was counted with Wallac Betaplate counter.

NR2B receptor = target: T2, NR2B receptor (Rattus norvegicus, UniProt P35439+Q00960); test: NR2B Binding Assay; details: for IC50: forebrain P2 membranes of male CD rats, 5 nM [3H] NR2B ligand
T2 construct: Membranes were prepared by homogenization of forebrain of male CD rats; from tissue; host or cells: forebrain of male CD rats (P2 membrane)
Description: The activity of the cycloalkylene amide compounds of the present invention, as NR2B antagonists, is determined by their ability to inhibit the binding of NR2B subunit at its receptor sites employing radioactive ligands.
The NR^2B antagonist activity of the cycloalkylene amide compounds is evaluated by using the standard assay procedure described in, for example, J. Pharmacol., 331, pp 117-126, 1997. This method essentially involves determining the concentration of the individual compound required to reduce the amount of radiolabelled NR2B ligands by 50% at their receptor sites, thereby affording characteristic IC50 values for each compound tested. More specifically, the assay is carried out as follows.
Membranes were prepared by homogenization of forebrain of male CD rats weighing between 170˜190 g by using glass-Teflon homogenizer in 0.32 M sucrose at 4° C. The crude nuclear pellet was removed by centrifugation at 1000×g for 10 min, and the supernatant centrifuged at 17000×g for 25 min. The resulting pellet was resuspended in 5 mM Tris acetate pH 7.4 at 4° C. for 10 min to lyse cellular particles and again centrifuged at 17000×g. The resulting pellet (P2 membrane) was washed twice in Tris acetate, resuspended at 5.5 mg protein/ml and stored at −20° C. until use. All the manipulation was done on ice, and stock solution and equipment were kept on ice at all time.
For the saturation assay, receptor saturation was determined by incubating [^3H]-1-[(1S*,2S*)-2-hydroxy-2-(4-hydroxyphenyl)-1-methylethyl]-4-phenylpiperidin-4-ol and 50 μg protein of P2 membrane for 60 minutes at room temperature in a final 100 μl of incubation buffer (50 mM Tris HCl, pH7.4). Total and non-specific bindings (in the presence of 10 μM of unlabeled 1-[(1S*,2S*)-2-hydroxy-2-(4-hydroxyphenyl)-1-methylethyl]-4-phenylpiperidin-4-ol) were determined in a range of [^3H]-1-[(1S*,2S*)-2-hydroxy-2-(4-hydroxyphenyl)-1-methylethyl]-4-phenylpiperidin-4-ol concentrations (0.625 nM to 60 nM).
For the competition assay, test compounds were incubated in duplicate with 5 nM [^3H]-1-[(1S*,2S*)-2-hydroxy-2-(4-hydroxyphenyl)-1-methylethyl]-4-phenylpiperidin-4-ol and 50 μg protein of P2 membrane for 60 minutes at room temperature in a final 100 μl of 50 mM Tris HCl buffer (pH7.4). Nonspecific binding was determined by 10 μM of unlabeled 1-[(1S*,2S*)-2-hydroxy-2-(4-hydroxyphenyl)-1-methylethyl]-4-phenylpiperidin-4-ol (25 μl). The saturation derived KD gained in saturation assay was used for all Ki calculations.
All incubations were terminated by rapid vacuum filtration over 0.2% polyethyleneimine soaked Whatman GF/B glass fibre filter paper using a SKATRON cell harvester followed by three washes with ice-cold filtration buffer (5 mM Tris HCl, pH 7.4.). Receptor-bound radioactivity was quantified by liquid scintillation counting using Packard LS counter. Competition assays were performed by counting Wallac GF/B filters on Betaplate scintillation counter (Wallac).

Human HERG [2] = target: T1, Human HERG
Description: as §1, §2

T1 sequence (Q12809 whole entry): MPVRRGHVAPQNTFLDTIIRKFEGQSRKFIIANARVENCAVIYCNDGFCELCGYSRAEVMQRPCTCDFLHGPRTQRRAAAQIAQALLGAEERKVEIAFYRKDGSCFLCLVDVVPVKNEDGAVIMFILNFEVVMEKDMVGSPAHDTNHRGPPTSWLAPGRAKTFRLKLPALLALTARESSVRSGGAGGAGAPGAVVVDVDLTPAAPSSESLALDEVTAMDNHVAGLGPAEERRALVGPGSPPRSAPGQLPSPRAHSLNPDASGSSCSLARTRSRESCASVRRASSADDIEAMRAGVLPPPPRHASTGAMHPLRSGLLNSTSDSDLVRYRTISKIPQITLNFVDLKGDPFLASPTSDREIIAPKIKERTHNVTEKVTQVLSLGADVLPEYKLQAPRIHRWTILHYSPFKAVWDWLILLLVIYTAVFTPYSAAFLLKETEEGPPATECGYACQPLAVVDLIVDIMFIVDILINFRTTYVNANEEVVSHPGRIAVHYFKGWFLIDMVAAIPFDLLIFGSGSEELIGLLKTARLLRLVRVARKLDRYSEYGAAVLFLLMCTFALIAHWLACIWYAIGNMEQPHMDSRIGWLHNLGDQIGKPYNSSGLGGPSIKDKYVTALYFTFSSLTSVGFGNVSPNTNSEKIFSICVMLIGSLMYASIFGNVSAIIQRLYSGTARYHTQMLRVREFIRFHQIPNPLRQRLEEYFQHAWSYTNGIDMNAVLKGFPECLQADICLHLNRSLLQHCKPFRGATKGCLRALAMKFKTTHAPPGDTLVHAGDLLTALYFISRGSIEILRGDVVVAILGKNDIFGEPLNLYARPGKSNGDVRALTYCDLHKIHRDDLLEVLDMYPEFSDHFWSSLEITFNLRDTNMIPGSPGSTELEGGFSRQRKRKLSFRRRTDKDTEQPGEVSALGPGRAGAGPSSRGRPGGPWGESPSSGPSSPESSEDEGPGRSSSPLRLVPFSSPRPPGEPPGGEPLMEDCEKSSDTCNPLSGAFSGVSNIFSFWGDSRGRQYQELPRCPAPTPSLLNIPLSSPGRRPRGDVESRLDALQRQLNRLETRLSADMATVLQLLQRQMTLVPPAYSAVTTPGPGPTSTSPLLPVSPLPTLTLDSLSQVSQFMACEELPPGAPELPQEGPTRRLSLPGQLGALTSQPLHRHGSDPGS
T2 sequence (Q00960 27-1482, other chains not shown): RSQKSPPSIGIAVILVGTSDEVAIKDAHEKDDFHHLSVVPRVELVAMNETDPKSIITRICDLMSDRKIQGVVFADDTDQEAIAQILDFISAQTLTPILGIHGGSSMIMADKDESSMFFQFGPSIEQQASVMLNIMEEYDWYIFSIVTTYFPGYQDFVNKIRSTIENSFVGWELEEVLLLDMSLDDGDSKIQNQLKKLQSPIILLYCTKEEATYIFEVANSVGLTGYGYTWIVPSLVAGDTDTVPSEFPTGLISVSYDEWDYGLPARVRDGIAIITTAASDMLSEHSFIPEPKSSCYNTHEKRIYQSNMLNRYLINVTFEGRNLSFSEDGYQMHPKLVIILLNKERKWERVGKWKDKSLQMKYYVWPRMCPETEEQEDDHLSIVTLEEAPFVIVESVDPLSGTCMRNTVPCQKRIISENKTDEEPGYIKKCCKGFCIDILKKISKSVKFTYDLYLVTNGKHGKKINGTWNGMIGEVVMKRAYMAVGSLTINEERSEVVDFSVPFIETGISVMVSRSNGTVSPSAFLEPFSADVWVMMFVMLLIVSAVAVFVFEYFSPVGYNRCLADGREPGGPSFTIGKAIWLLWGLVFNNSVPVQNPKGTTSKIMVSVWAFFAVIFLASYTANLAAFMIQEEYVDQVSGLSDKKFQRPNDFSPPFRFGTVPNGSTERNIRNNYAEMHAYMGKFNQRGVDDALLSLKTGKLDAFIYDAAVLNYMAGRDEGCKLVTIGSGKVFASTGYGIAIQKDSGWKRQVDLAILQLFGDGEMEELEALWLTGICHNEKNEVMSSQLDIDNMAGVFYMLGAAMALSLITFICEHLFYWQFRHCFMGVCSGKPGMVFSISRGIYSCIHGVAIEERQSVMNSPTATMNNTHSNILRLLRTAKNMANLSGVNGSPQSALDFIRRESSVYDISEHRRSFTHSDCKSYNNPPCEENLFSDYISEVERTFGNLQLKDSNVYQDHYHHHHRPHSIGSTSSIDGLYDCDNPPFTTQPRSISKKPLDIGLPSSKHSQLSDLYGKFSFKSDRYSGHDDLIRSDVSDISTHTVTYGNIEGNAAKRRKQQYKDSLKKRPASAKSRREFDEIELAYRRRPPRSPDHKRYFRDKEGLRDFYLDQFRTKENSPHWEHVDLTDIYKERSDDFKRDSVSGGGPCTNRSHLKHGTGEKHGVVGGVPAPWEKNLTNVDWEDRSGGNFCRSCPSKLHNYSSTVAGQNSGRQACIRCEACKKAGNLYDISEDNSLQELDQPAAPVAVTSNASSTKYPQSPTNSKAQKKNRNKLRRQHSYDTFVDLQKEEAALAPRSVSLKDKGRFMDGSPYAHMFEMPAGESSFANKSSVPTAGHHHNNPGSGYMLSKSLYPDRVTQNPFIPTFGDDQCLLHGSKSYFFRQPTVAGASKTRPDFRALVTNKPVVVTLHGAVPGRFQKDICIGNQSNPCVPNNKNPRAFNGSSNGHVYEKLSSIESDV

Q: For `O=C(NC[C@]1(O)CC[C@H](COc2ccc(F)cc2)CC1)c1ccc(O)cc1` [Example 9, N-({trans-4-[(4-Fluorophenoxy)methyl]-1-hydroxcyclohexyl}methyl)-4-hydroxybenzamide], which melting point is on record?
A: 176.4 °C

Q: And the IC50 (Human HERG [1])?
A: 26300 nM

Q: What about the IC50 (NR2B receptor) of the same compound?
A: 7.5 nM

Q: For `O=C(NC[C@]1(O)CC[C@H](COc2cccc(F)c2)CC1)c1ccc(O)cc1` [Example 10, N-({trans-4-[(3-Fluorophenoxy)methyl]-1-hydroxycyclohexyl}methyl)-4-hydroxybenzamide], which melting point is on record?
A: 186 °C

Q: What about the IC50 (Human HERG [1]) of the same compound?
A: 25800 nM

Q: And the IC50 (NR2B receptor)?
A: 12 nM

Q: Which melting point does the source give for `O=C(NC[C@]1(O)CC[C@H](COc2ccccc2F)CC1)c1ccc(O)cc1` [Example 11, N-({trans-4-[(2-Fluorophenoxy)methyl]-1-hydroxycyclohexyl}methyl)-4-hydroxybenzamide] here?
A: 185 °C

Q: What about the IC50 (Human HERG [1]) of the same compound?
A: > 100000 nM

Q: What about the Ki (NR2B receptor; competition assay, rat forebrain P2 membranes, read-out: Ki value, binding affinity for the NR2B receptor) of the same compound?
A: 6.2 nM

Q: What about the IC50 (NR2B receptor) of the same compound?
A: 8.5 nM

Q: Which melting point does the source give for `O=C(NC[C@]1(O)CC[C@H](COc2cc(F)cc(F)c2)CC1)c1ccc(O)cc1` [Example 13, N-({trans-4-[(3,5-Difluorophenoxy)methyl]-1-hydroxycyclohexyl}methyl)-4-hydroxybenzamide] here?
A: 102.4 °C

Q: And the IC50 (Human HERG [1])?
A: 62600 nM

Q: And the IC50 (NR2B receptor)?
A: 30 nM

Q: With `O=C(NC[C@]1(O)CC[C@H](COc2cccc(Cl)c2)CC1)c1ccc(O)cc1` [Example 15, N-({trans-4-[(3-Chlorophenoxy)methyl]-1-hydroxycyclohexyl}methyl)-4-hydroxybenzamide] as the compound, how does the melting point read?
A: 164.9 °C

Q: What about the IC50 (Human HERG [1]) of the same compound?
A: 20700 nM

Q: And the IC50 (NR2B receptor)?
A: 21 nM

Q: With `O=C(NC[C@]1(O)CC[C@H](COc2ccc(Cl)cc2)CC1)c1ccc(O)cc1` [Example 16, N-({trans-4-[(4-Chlorophenoxy)methyl]-1-hydroxycyclohexyl}methyl)-4-hydroxybenzamide] as the compound, how does the melting point read?
A: 208.2 °C

Q: What about the IC50 (Human HERG [1]) of the same compound?
A: > 100000 nM

Q: What about the IC50 (NR2B receptor) of the same compound?
A: 19.8 nM

Q: Which results are given for `Cc1ccccc1OC[C@H]1CC[C@@](O)(CNC(=O)c2ccc(O)cc2)CC1` [Example 17, 4-Hydroxy-N-({trans-1-hydroxy-4-[(2-methylphenoxy)methyl]cyclohexyl}methyl)benzamide]?
A: melting point: 189.1 °C; IC50 (Human HERG [1]): > 100000 nM; IC50 (NR2B receptor): 23.4 nM

Q: With `Cc1cccc(OC[C@H]2CC[C@@](O)(CNC(=O)c3ccc(O)cc3)CC2)c1` [Example 18, 4-Hydroxy-N-({trans-1-hydroxy-4-[(3-methylphenoxy)methyl]cyclohexyl}methyl)benzamide] as the compound, how does the melting point read?
A: 201.4 °C

Q: And the IC50 (Human HERG [1])?
A: > 100000 nM

Q: What about the IC50 (NR2B receptor) of the same compound?
A: 15.2 nM

Q: Which melting point does the source give for `Cc1ccc(OC[C@H]2CC[C@@](O)(CNC(=O)c3ccc(O)cc3)CC2)cc1` [Example 19, 4-Hydroxy-N-({trans-1-hydroxy-4-[(4-methylphenoxy)methyl]cyclohexyl}methyl)benzamide] here?
A: 203.1 °C

Q: What about the IC50 (Human HERG [1]) of the same compound?
A: > 100000 nM

Q: And the IC50 (NR2B receptor)?
A: 7.7 nM

Q: Which melting point does the source give for `O=C(NC[C@]1(O)CC[C@H](COCc2ccccc2)CC1)c1ccc(O)cc1` [Example 21, N-({trans-4-[(Benzyloxy)methyl]-1-hydroxycyclohexyl}methyl)-4-hydroxybenzamide] here?
A: 165.7 °C

Q: And the IC50 (Human HERG [1])?
A: > 100000 nM

Q: And the IC50 (NR2B receptor)?
A: 11.4 nM

Q: With `O=C(NC[C@]1(O)CC[C@H](COCc2ccccc2F)CC1)c1ccc(O)cc1` [Example 22, N-[(trans-4-{[(2-Fluorobenzyl)oxy]methyl}-1-hydroxycyclohexyl)methyl]-4-hydroxybenzamide] as the compound, how does the melting point read?
A: 174.3 °C

Q: What about the IC50 (Human HERG [1]) of the same compound?
A: > 100000 nM

Q: And the IC50 (NR2B receptor)?
A: 11 nM

Q: Which melting point does the source give for `O=C(NC[C@]1(O)CC[C@H](COCc2cccc(F)c2)CC1)c1ccc(O)cc1` [Example 23, N-[(trans-4-{[(3-Fluorobenzyl)oxy]methyl}-1-hydroxycyclohexyl)methyl]-4-hydroxybenzamide] here?
A: 167.6 °C

Q: What about the IC50 (Human HERG [1]) of the same compound?
A: > 100000 nM

Q: What about the IC50 (NR2B receptor) of the same compound?
A: 28.6 nM

Q: Which melting point does the source give for `O=C(NC[C@]1(O)CC[C@H](COCc2ccc(F)cc2)CC1)c1ccc(O)cc1` [Example 24, N-[(trans-4-{[(4-Fluorobenzyl)oxy]methyl}-1-hydroxycyclohexyl)methyl]-4-hydroxybenzamide] here?
A: 167.6 °C

Q: What about the IC50 (Human HERG [1]) of the same compound?
A: 97000 nM

Q: What about the IC50 (NR2B receptor) of the same compound?
A: 21.8 nM

Q: Which melting point does the source give for `O=C(NC[C@]1(O)CC[C@@H](Oc2ccc(Cl)cc2)CC1)c1ccc(O)c(F)c1` [Example 34, N-{[cis-4-(4-Chlorophenoxy)-1-hydroxycyclohexyl]methyl}-3-fluoro-4-hydroxybenzamide] here?
A: 168.1 °C

Q: And the IC50 (Human HERG [1])?
A: > 30000 nM

Q: What about the IC50 (NR2B receptor) of the same compound?
A: 14.7 nM

Q: Which melting point does the source give for `O=C(NC[C@]1(O)CC[C@H](OCc2ccccc2F)CC1)c1ccc(O)cc1` [Example 48, N-({trans-4-[(2-Fluorobenzyl)oxy]-1-hydroxycyclohexyl}methyl)-4-hydroxybenzamide] here?
A: 162.9 °C

Q: What about the IC50 (Human HERG [1]) of the same compound?
A: > 100000 nM

Q: And the IC50 (NR2B receptor)?
A: 25.5 nM

Q: Which IC50 (NR2B receptor) does the source give for `O=C(NCC1(O)CCC(COCc2cccc(F)c2)CC1)c1ccc(O)c(F)c1` (stereo not drawn) [Example 50, 3-Fluoro-N-[(trans-4-{[(3-fluorobenzyl)oxy]methyl}-1-1-hydroxycyclohexyl)methyl]-hydroxybenzamide] here?
A: 27.5 nM

Q: And the IC50 (Human HERG [2])?
A: > 100000 nM

Q: Which results are given for `O=C(NC[C@]1(O)CC[C@H](CCOc2ccccc2F)CC1)c1cn[nH]c1` [Example 56, N-({trans-4-[2-(2-Fluorophenoxy)ethyl]-1-hydroxycyclohexyl}methyl)-1H-pyrazole-4-carboxamide]?
A: melting point: 175.1 °C; IC50 (Human HERG [1]): > 100000 nM; IC50 (NR2B receptor): 30.2 nM

Q: Which results are given for `O=C(NC[C@]1(O)CC[C@H](COCc2ccccc2)CC1)c1ccc(O)c(F)c1` [Example 60, N-({trans-4-[(Benzyloxy)methyl]-1-hydroxycyclohexyl}methyl)-3-fluoro-4-hydoxybenzamide]?
A: melting point: 162.5 °C; IC50 (Human HERG [1]): > 100000 nM; IC50 (NR2B receptor): 18.2 nM

Q: Which results are given for `O=C(NC[C@]1(O)CC[C@H](COc2ccccc2)CC1)c1ccc(O)c(F)c1` [Example 62, 3-Fluoro-4-hydroxy-N-{[trans-1-hydroxy-4-(phenoxymethyl)cyclohexyl]methyl}benzamide]?
A: melting point: 183.5 °C; IC50 (Human HERG [1]): > 30000 nM; IC50 (NR2B receptor): 9.1 nM

Q: With `O=C(NC[C@]1(O)CC[C@H](CCOc2ccccc2)CC1)c1ccc(O)c(F)c1` [Example 63, 3-Fluoro-4-hydroxy-N-{[trans-1-hydroxy-4-(2-phenoxyethyl)cyclohexyl]methyl}benzamide] as the compound, how does the melting point read?
A: 164 °C

Q: What about the IC50 (Human HERG [1]) of the same compound?
A: > 30000 nM

Q: And the IC50 (NR2B receptor)?
A: 6.2 nM

Q: With `O=C(NC[C@]1(O)CC[C@H](COCc2ccc(F)cc2)CC1)c1ccc(O)c(F)c1` [Example 64, 3-Fluoro-N-[(trans-4-{[(4-fluorobenzyl)oxy]methyl}-1-hydroxycyclohexyl)methyl]-4-hydroxybenzamide] as the compound, how does the melting point read?
A: 155.9 °C

Q: And the IC50 (Human HERG [1])?
A: > 100000 nM

Q: And the IC50 (NR2B receptor)?
A: 26.5 nM

Q: Which melting point does the source give for `O=C(NC[C@]1(O)CC[C@H](COc2ccc(F)cc2)CC1)c1ccc(O)c(F)c1` [Example 66, 3-Fluoro-N-({trans-4-[(4-fluorophenoxy)methyl]-1-hydroxycyclohexyl}methyl)-4-hydroxybenzamide] here?
A: 181.6 °C

Q: What about the IC50 (Human HERG [1]) of the same compound?
A: > 100000 nM

Q: What about the IC50 (NR2B receptor) of the same compound?
A: 12.6 nM

Q: With `Cc1ccc(OC[C@H]2CC[C@@](O)(CNC(=O)c3ccc(O)cc3)CC2)nc1` [Example 67, 4-Hydroxy-N-[(trans-1-hydroxy-4-{[(5-methylpyridin-2-yl)oxy]methyl}cyclohexyl)methyl]benzamide] as the compound, how does the melting point read?
A: 196.2 °C

Q: What about the IC50 (Human HERG [1]) of the same compound?
A: > 30000 nM

Q: And the IC50 (NR2B receptor)?
A: 16.9 nM

Q: What does the source list for `O=C(NC[C@H]1CC[C@@H](COc2ccccc2)CC1)c1cn[nH]c1` [Example 73, N-{[cis-4-(Phenoxymethyl)cyclohexyl]methyl}-1H-pyrazole-4-carboxamide]?
A: melting point: 150.1 °C; IC50 (Human HERG [1]): > 30000 nM; IC50 (NR2B receptor): 15.4 nM

Q: Which IC50 (Human HERG [1]) does the source give for `O=C(NC[C@H]1CC[C@@H](COc2ccc(Cl)c(F)c2)CO1)c1cn[nH]c1` [Example 129, N-({(2R,5R)-5-[(4-Chloro-3-fluorophenoxy)methyl]tetrahydro-2H-pyran-2-yl}methyl)-1H-pyrazole-4-carboxamide] here?
A: > 30000 nM

Q: And the IC50 (NR2B receptor)?
A: 10.3 nM
